Three compounds from article PMC11770821, “Pharmacokinetics and pharmacodynamics of an innovative psychedelic N,N-dimethyltryptamine/harmine formulation in healthy participants: a randomized controlled trial” (International Journal of Neuropsychopharmacology, 2025) can be followed below.

Structures are written as SMILES. A value given as a limit tells only on which side of the number the result lay.

A word on the half-life: it is the time in which the quantity being followed falls by half. What is called AUC is the area under the concentration-time curve, a measure of exposure. What is called Cmax is the maximum level reached in the sampled fluid or tissue. The Tmax is the time at which the peak concentration occurs.

A short description of data set [1]: Plasma pharmacokinetics of DMT, harmine and their metabolites (non-compartmental analysis).
Procedure: (§1) The study was conducted as a within-subject, double-blind, randomized placebo-controlled trial. Randomization was performed by an independent individual using a computer-generated random number sequence. All participants underwent 3 randomized drug treatments on separate study days, with an intervening washout period of at least 2 weeks: (1) DMT/HAR: harmine hydrochloride (HCl; 100 mg; buccal orodispersible tablet; ODT) plus DMT (as hemifumarate; 100 mg; intranasal: 10 mg every 15 minutes over 150 minutes), (2) HAR/PLA: harmine (100 mg, buccal ODT) plus placebo nasal spray (NaCl; at same dosing intervals), and (3) PLA/PLA: placebo buccal ODT plus placebo nasal spray. In all conditions, buccal tablets were premedicated for 30 minutes. Food or water intake was not allowed 2 hours before drug administration.
(§2) Thirty minutes following buccal premedication with harmine HCl (100 mg) or placebo, the intranasal repeated-intermittent administration of DMT or placebo was initiated. Volunteers received up to 100 mg DMT in 10 mg dosing steps each 15 minutes (2 × 2 puffs per nostril) over a period of 150 minutes (except for a 30-minute break between 60 and 90 minutes due to a behavioral task). […] Volunteers could adjust each dose (0, 5, 10 mg) based on tolerance, with encouragement to follow the regimen if no adverse effects (AEs) occurred. Thus, volunteers were given the chance to control the psychedelic strength of the experience to enhance safety and tolerability.
(§3) Blood samples were collected from the left or right antecubital vein at −30 (baseline), 0, 30, 60, 90, 120, 150, 180, 195, 210, 240, 270, and 300 minutes after first DMT/placebo administration for analysis of blood plasma levels of harmine, DMT, the 3 major DMT metabolites 3-IAA, DMT-N-oxide, and NMT and the major harmine metabolite harmol. While DMT administration was ongoing, blood drawing was always performed right before DMT administration (time point -1 minute). The venous catheter was connected to a 100 mm Heidelberger plastic tube extension to collect blood samples without disturbing the volunteers during their psychedelic experience. The intravenous line was kept patent with a slow drip (10 mL/h) of heparinized saline (1000 IU heparin in 0.9 g NaCl/dL; HEPARIN Bichsel; Bichsel AG). Blood samples were immediately centrifuged for 10 minutes at 2000 RCF. Then, plasma was transferred to Eppendorf tubes, shock-frosted in liquid nitrogen (~ −196 °C) and stored at −80 °C until assay.
(§4) The data were analyzed and visualized with R Studio version 2021.09.2 + 382.[36] PK-PD parameters were computed using the R-package PKNCA.[37] For Cmax, tmax, AUCs (area under the curves), and half-life calculations, non-compartmental analyses were performed.[38] […] Post hoc pairwise comparisons were calculated using paired Wilcoxon signed-rank tests. P-values were adjusted using the Benjamini-Hochberg multiple testing correction method. Pearson or Spearman correlations were performed (as appropriate according to Shapiro-Wilk tests) to analyze associations between DMT plasma levels and subjective effects.
(§5) For the sample preparation 200 µl of plasma were spiked with 50 µl internal standard (IS) mixture (40 ng/ml DMT-d6 and harmine-d3) and 50 µl methanol (MeOH). Proteins were precipitated by adding 400 µl of acetonitrile (ACN). The samples were shaken for 10 minutes and centrifuged for 5 min at 10‘000 rpm. 350 µl of the supernatant was transferred into an auto-sampler vial, evaporated to dryness under a gentle stream of nitrogen at room temperature and reconstituted in 100 µl eluent-mixture (98:2, v/v).
A further data set deals with healthy male volunteers. Briefly: Acute subjective drug effects, visual analog scales (VAS 0–100). In kind it is in vivo, human. As for the experimental part:
The detailed dosing scheme is depicted in Figure 1.
The intensity of acute subjective effects was monitored with visual analog scales (VASs, range 0–100) on a touchscreen tablet throughout the study day at baseline (−90), 0, 30, 60, 90, 120, 180, 240, and 300 after the first DMT/placebo administration. At 360 minutes after the first DMT/placebo administration, a phenomenological interview was conducted with participants to further explore acute subjective drug effects. For PK-PD analyses, we included VAS for intensity, liking, disliking, and arousal in the present paper. Further analyses on a set of neurophysiological, psychometric, and phenomenological assessments will be presented in forthcoming manuscripts.

A short description of a further data set: clinical. Conditions: male, human, plasma, other: intranasal (DMT), buccal (harmine).

Procedure for clinical: as §1, §2, §3, §4, §5

As for `C[N+](C)([O-])CCc1c[nH]c2ccccc12` [DMT-N-oxide], the t1/2 in data set [1] (DMT + harmine condition, plasma elimination half-life, mean (SD)) is on record as 1.2 (0.4) h. In addition, the AUCinf in data set [1] (DMT + harmine condition, plasma, time zero to infinity, mean (SD)) is reported as 69.2 (22.1) ng × h/mL.

Consider `CN(C)CCc1c[nH]c2ccccc12` [DMT, N,N-dimethyltryptamine], for which the “correlation (r) between subjective intensity ratings and DMT plasma levels” value with healthy male volunteers (DMT + harmine condition, 95% CI 0.51-0.66) stood at 0.59. Moreover, the “duration of psychedelic effects / overall drug action” value in the data set with healthy male volunteers (DMT + harmine, after first DMT administration) was ≤ 240 min. The “duration of acute drug (psychedelic) effects” value in the data set with healthy male volunteers (DMT co-administered with harmine) was in the range of 2 to 3 h. Moreover, the “time blood plasma levels remained constant after the last intranasal DMT dose” value in data set [1] (DMT + harmine condition) is 30 min. Also, the half-life in data set [1] (male, human, plasma, other: intranasal) worked out at 0.6 h.

In the case of `O=C(O)Cc1c[nH]c2ccccc12` [3-IAA, indole-3-acetic acid], in “clinical”, the AUC was 7580 ng·h/mL, the concentration peaked (Cmax) at 2910 ng/mL and the time of peak concentration (Tmax) was found to be 4.1 h. In addition, in data set [1] (harmine-only (HAR) condition), the “plasma levels after harmine administration” value is “decreased”.
